The text below walks through data of BindingDB's records for doi:10.1016/j.bmcl.2004.04.065 (Eli Lilly, 2004).

For the assay, the target named is TGF-beta receptor type-1. Description: Inhibitory activity against TGF-beta type I receptor.
Consider `Fc1ccc(-c2nn3c(c2-c2ccnc4ccccc24)CCC3)nc1` [4-[2-(5-Fluoro-pyridin-2-yl)-5,6-dihydro-4H-pyrrolo[1,2-b]pyrazol-3-yl]-quinoline], for which the IC50 (usually the concentration that gives 50% inhibition) is 151 nM.

For the compound `Cc1cccc(-c2nn3c(c2-c2ccnc4cc(Cl)ccc24)CCC3)n1` [7-chloro-4-(2-(6-methylpyridin-2-yl)-5,6-dihydro-4H-pyrrolo[1,2-b]pyrazol-3-yl)quinoline], the IC50 stood at 48 nM.

Regarding `c1ccc(-c2nn3c(c2-c2ccnc4ccccc24)CCC3)nc1` [4-(2-(pyridin-2-yl)-5,6-dihydro-4H-pyrrolo[1,2-b]pyrazol-3-yl)quinoline], the IC50 was 104 nM.

The compound `CCSc1ccc2c(-c3c(-c4ccccn4)nn4c3CCC4)ccnc2c1` [7-Ethylsulfanyl-4-(2-pyridin-2-yl-5,6-dihydro-4H-pyrrolo[1,2-b]pyrazol-3-yl)-quinoline] had an IC50 of 110 nM.

`CCS(=O)(=O)c1ccc2c(-c3c(-c4ccccn4)nn4c3CCC4)ccnc2c1` [7-Ethanesulfonyl-4-(2-pyridin-2-yl-5,6-dihydro-4H-pyrrolo[1,2-b]pyrazol-3-yl)-quinoline] yielded a concentration for half-maximal inhibition (IC50) of 9290 nM.

`CCc1cccc(-c2nn3c(c2-c2ccnc4ccccc24)CCC3)n1` [4-[2-(6-Ethyl-pyridin-2-yl)-5,6-dihydro-4H-pyrrolo[1,2-b]pyrazol-3-yl]-quinoline] showed a half-inhibitory concentration (IC50) of 71 nM.
